From PubChem BioAssay (NCI)
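Abbreviation: GI50, concentration required for 50% inhibition of growth. Definition used: TGI = concentration required for complete inhibition of growth.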

Tests used:
Assay in all cases: inhibition of tumour cell growth, NCI panel, 384-well format
786-0 renal = tested on: 786-0 renal
A498 renal = tested on: A498 renal
A549 NSCLC = tested on: A549 NSCLC
ACHN renal = tested on: ACHN renal
CAKI-1 renal = tested on: CAKI-1 renal
CCRF-CEM leukemia = tested on: CCRF-CEM leukemia
COLO 205 colon = tested on: COLO 205 colon
DU-145 prostate = tested on: DU-145 prostate
EKVX NSCLC = tested on: EKVX NSCLC
HCC-2998 colon = tested on: HCC-2998 colon
HCT-15 colon = tested on: HCT-15 colon
HL-60(TB) leukemia = tested on: HL-60(TB) leukemia
HOP-62 NSCLC = tested on: HOP-62 NSCLC
HOP-92 NSCLC = tested on: HOP-92 NSCLC
HS 578T breast = tested on: HS 578T breast
HT29 colon = tested on: HT29 colon
IGROV1 ovarian = tested on: IGROV1 ovarian
K-562 leukemia = tested on: K-562 leukemia
KM12 colon = tested on: KM12 colon
LOX IMVI melanoma = tested on: LOX IMVI melanoma
M14 melanoma = tested on: M14 melanoma
MALME-3M melanoma = tested on: MALME-3M melanoma
MCF7 breast = tested on: MCF7 breast
MDA-MB-231 breast = tested on: MDA-MB-231 breast
MDA-MB-435 melanoma = tested on: MDA-MB-435 melanoma
MDA-MB-468 breast = tested on: MDA-MB-468 breast
MOLT-4 leukemia = tested on: MOLT-4 leukemia
NCI-H226 lung = tested on: NCI-H226 lung
NCI-H23 lung = tested on: NCI-H23 lung
NCI-H322M lung = tested on: NCI-H322M lung
NCI-H460 NSCLC = tested on: NCI-H460 NSCLC
NCI-H522 lung = tested on: NCI-H522 lung
NCI/ADR-RES ovarian = tested on: NCI/ADR-RES ovarian
OVCAR-3 ovarian = tested on: OVCAR-3 ovarian
OVCAR-4 ovarian = tested on: OVCAR-4 ovarian
OVCAR-5 ovarian = tested on: OVCAR-5 ovarian
OVCAR-8 ovarian = tested on: OVCAR-8 ovarian
PC-3 prostate = tested on: PC-3 prostate
RPMI-8226 leukemia = tested on: RPMI-8226 leukemia
RXF 393 renal = tested on: RXF 393 renal
SF-268 CNS = tested on: SF-268 CNS
SF-295 CNS = tested on: SF-295 CNS
SF-539 CNS = tested on: SF-539 CNS
SK-MEL-28 melanoma = tested on: SK-MEL-28 melanoma
SK-MEL-5 melanoma = tested on: SK-MEL-5 melanoma
SK-OV-3 ovarian = tested on: SK-OV-3 ovarian
SN12C renal = tested on: SN12C renal
SNB-19 CNS = tested on: SNB-19 CNS
SNB-75 CNS = tested on: SNB-75 CNS
SR leukemia = tested on: SR leukemia
SW-620 colon = tested on: SW-620 colon
T-47D breast = tested on: T-47D breast
TK-10 renal = tested on: TK-10 renal
U251 glioblastoma = tested on: U251 glioblastoma
UACC-257 melanoma = tested on: UACC-257 melanoma
UACC-62 melanoma = tested on: UACC-62 melanoma
UO-31 renal = tested on: UO-31 renal

CN[C@@H](C)C(=O)N[C@H](C(=O)N1CCC[C@H]1C(=O)Nc1snnc1-c1ccccc1)C1CCCCC1
GI50 ([…]-0 renal): 31.1 µM
TGI (786-0 renal): > 100 µM
GI50 (A498 renal): 26.4 µM
TGI (A498 renal): 74.6 µM
GI50 (A549 NSCLC): > 100 µM
TGI (A549 NSCLC): > 100 µM
GI50 (ACHN renal): 17.4 µM
TGI (ACHN renal): 39.5 µM
GI50 (CAKI-1 renal): 52.1 µM
TGI (CAKI-1 renal): > 100 µM
GI50 (CCRF-CEM leukemia): 10.9 µM
TGI (CCRF-CEM leukemia): 32.2 µM
GI50 (COLO 205 colon): 34.5 µM
TGI (COLO 205 colon): > 100 µM
GI50 (DU-145 prostate): 49.9 µM
TGI (DU-145 prostate): > 100 µM
GI50 (EKVX NSCLC): 97.3 µM
TGI (EKVX NSCLC): > 100 µM
GI50 (HCC-2998 colon): 21.5 µM
TGI (HCC-2998 colon): 40.9 µM
GI50 (HCT-15 colon): 80.7 µM
TGI (HCT-15 colon): > 100 µM
GI50 (HL-60(TB) leukemia): 0.412 µM
TGI (HL-60(TB) leukemia): 15.5 µM
GI50 (HOP-62 NSCLC): 11.2 µM
TGI (HOP-62 NSCLC): 33.2 µM
GI50 (HOP-92 NSCLC): 18.1 µM
TGI (HOP-92 NSCLC): 73.6 µM
GI50 (HS 578T breast): 34.5 µM
TGI (HS 578T breast): > 100 µM
GI50 (HT29 colon): 17.3 µM
TGI (HT29 colon): 35.7 µM
GI50 (IGROV1 ovarian): 64.5 µM
TGI (IGROV1 ovarian): > 100 µM
GI50 (K-562 leukemia): 19.1 µM
TGI (K-562 leukemia): 35.3 µM
GI50 (KM12 colon): 60.1 µM
TGI (KM12 colon): > 100 µM
GI50 (LOX IMVI melanoma): 37.9 µM
TGI (LOX IMVI melanoma): > 100 µM
GI50 (M14 melanoma): 28.2 µM
TGI (M14 melanoma): 72.7 µM
GI50 (MALME-3M melanoma): 0.0294 µM
TGI (MALME-3M melanoma): 0.392 µM
GI50 (MCF7 breast): 31.7 µM
TGI (MCF7 breast): > 100 µM
GI50 (MDA-MB-231 breast): 0.0979 µM
TGI (MDA-MB-231 breast): 2.51 µM
GI50 (MDA-MB-435 melanoma): 31.2 µM
TGI (MDA-MB-435 melanoma): > 100 µM
GI50 (MDA-MB-468 breast): 6.93 µM
TGI (MDA-MB-468 breast): 26.9 µM
GI50 (MOLT-4 leukemia): 17.8 µM
TGI (MOLT-4 leukemia): 35.6 µM
GI50 (NCI-H226 lung): 70.7 µM
TGI (NCI-H226 lung): > 100 µM
GI50 (NCI-H23 lung): 14.2 µM
TGI (NCI-H23 lung): > 100 µM
GI50 (NCI-H322M lung): > 100 µM
TGI (NCI-H322M lung): > 100 µM
GI50 (NCI-H460 NSCLC): 38.7 µM
TGI (NCI-H460 NSCLC): > 100 µM
GI50 (NCI-H522 lung): 2.44 µM
TGI (NCI-H522 lung): 11.9 µM
GI50 (NCI/ADR-RES ovarian): 5.89 µM
TGI (NCI/ADR-RES ovarian): 45.2 µM
GI50 (OVCAR-3 ovarian): 26.2 µM
TGI (OVCAR-3 ovarian): > 100 µM
GI50 (OVCAR-4 ovarian): 0.0142 µM
TGI (OVCAR-4 ovarian): 0.046 µM
GI50 (OVCAR-5 ovarian): 59.1 µM
TGI (OVCAR-5 ovarian): > 100 µM
GI50 (OVCAR-8 ovarian): 16.5 µM
TGI (OVCAR-8 ovarian): 36.2 µM
GI50 (PC-3 prostate): 45.6 µM
TGI (PC-3 prostate): > 100 µM
GI50 (RPMI-8226 leukemia): 22.7 µM
TGI (RPMI-8226 leukemia): 57.2 µM
GI50 (RXF 393 renal): 0.444 µM
TGI (RXF 393 renal): 23.8 µM
GI50 (SF-268 CNS): > 100 µM
TGI (SF-268 CNS): > 100 µM
GI50 (SF-295 CNS): 64 µM
TGI (SF-295 CNS): > 100 µM
GI50 (SF-539 CNS): 40.1 µM
TGI (SF-539 CNS): > 100 µM
GI50 (SK-MEL-28 melanoma): 22.7 µM
TGI (SK-MEL-28 melanoma): 64.4 µM
GI50 (SK-MEL-5 melanoma): 0.845 µM
TGI (SK-MEL-5 melanoma): 18.1 µM
TGI (SK-OV-3 ovarian): 2.78 µM
GI50 (SN12C renal): > 100 µM
TGI (SN12C renal): > 100 µM
GI50 (SNB-19 CNS): > 100 µM
TGI (SNB-19 CNS): > 100 µM
GI50 (SNB-75 CNS): 38.7 µM
TGI (SNB-75 CNS): > 100 µM
GI50 (SR leukemia): 13.5 µM
TGI (SR leukemia): 33.6 µM
GI50 (SW-620 colon): > 100 µM
TGI (SW-620 colon): > 100 µM
GI50 (T-47D breast): 45.5 µM
TGI (T-47D breast): > 100 µM
GI50 (TK-10 renal): 18.6 µM
TGI (TK-10 renal): 46.2 µM
GI50 (U251 glioblastoma): 59.7 µM
TGI (U251 glioblastoma): > 100 µM
GI50 (UACC-257 melanoma): 16.6 µM
TGI (UACC-257 melanoma): 32.5 µM
GI50 (UACC-62 melanoma): 30.1 µM
TGI (UACC-62 melanoma): 91.5 µM
GI50 (UO-31 renal): 8.13 µM
TGI (UO-31 renal): > 100 µM
